Values of other authors in patent US12686652B2, “Methods of increasing irrigation water and fertilizer delivery to soil using formic acid and formate salts, making a formate salt from carbon dioxide, and generating a carbon credit” (Deerpoint Group, Inc., priority 2023, dated 2026).
Read-outs that look alike come from different tables or passages of the source.

Conditions: cited from earlier work

[Fe+2] [Fe^+2]
Solubility with anion CO3^−2: VSS (VSS means very slightly soluble (20-2,000 ppm)) | Solubility with anion CO3^−2 (listed as Fe^+3): I (I means insoluble (<20 ppm)) | Solubility with anion Cl^− (anion Cl^−): S (S means soluble (over 5,000 ppm)) | Solubility with anion HCO3^−: SS (SS means slightly soluble (2,000 to 5,000 ppm)) | Solubility with anion HCO3^− (listed as Fe^+3): I (I means insoluble (<20 ppm)) | Solubility with anion NO3^− (anion NO3^−): S (S means soluble (over 5,000 ppm)) | Solubility with anion OH^−: VSS (VSS means very slightly soluble (20-2,000 ppm)) | Solubility with anion OH^− (listed as Fe^+3): I (I means insoluble (<20 ppm)) | Solubility with anion PO4^−3 (anion PO4^−3): I (I means insoluble (<20 ppm)) | Solubility with anion SO4^−2 (anion SO4^−2): S (S means soluble (over 5,000 ppm)) | Solubility with anion S^−2 (anion S^−2): I (I means insoluble (<20 ppm))
